{"source": "paper PMC3514216", "about": "“SRC Homology 2 Domain Binding Sites in Insulin, IGF-1 and FGF receptor mediated signaling networks reveal an extensive potential interactome” (Cell Communication and Signaling : CCS, 2012)", "key": {"Bmx SH2 domain": {"system": "Bmx SH2 domain", "experiment": "SPOT peptide array", "type": "binding", "settings": "GST-SH2 0.25 μM, membrane-bound peptide, 1 mM DTT, LiCor read-out", "outline": "(§1)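 Semi-quantitative binding scored against the membrane average: positive above 3× mean, negative below mean. Probe was a GST–SH2 fusion on SPOT arrays of pTyr 11-mers, detected with anti-GST antibody plus near-infrared secondary.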"}, "Nck1 SH2 domain": {"target": "Nck1 SH2 domain (Homo sapiens, UniProt P16333)", "experiment": "SPOT peptide array", "type": "binding", "settings": "GST-SH2 0.25 μM, membrane-bound peptide, 1 mM DTT, LiCor read-out", "outline": "as §1"}, "Src SH2 domain [1]": {"target": "T1, Src SH2 domain (Homo sapiens, UniProt P12931)", "experiment": "SPOT peptide array", "type": "binding", "settings": "GST-SH2 0.25 μM", "outline": "as §1"}, "Src SH2 domain [2]": {"target": "T1, Src SH2 domain", "set-up": "method as in 2 sources, ref [19] = [19]; PMID 7680959; doi:10.1016/0092-8674(93)90404-e; Songyang Z Shoelson SE Chaudhuri M Gish G Pawson T Haser WG King F Roberts T Ratnofsky S Lechleider RJ SH2 domains recognize specific phosphopeptide sequences Cell 1993 72 767 778 7680959 10.1016/0092 ||| ref [119, 121] = [119]; PMID 9032297; doi:10.1128/mcb.17.3.1702; Schlaepfer DD Broome MA Hunter T Fibronectin-stimulated signaling from a focal adhesion kinase-c-Src complex: involvement of the Grb2, p130cas, and Nck adaptor proteins Mol Cell Biol 1997 17 1702 1713 || [121]; PMID 16245368; doi:10.1002/jmr.755; Nasertorabi F Tars K Becherer K Kodandapani R Liljas L Vuori K Ely KR Molecular basis for regulation of Src by the docking protein p130Cas J Mol Recognit 2006 19 30 38 16245368 10.1002/jmr.755", "settings": "read-out: Affinity (KD); cited from earlier work"}, "Lck SH2 domain": {"system": "Lck SH2 domain", "experiment": "SPOT peptide array", "type": "binding", "settings": "GST-SH2 0.25 μM"}, "panel of 50 SH2 domains": {"system": "panel of 50 SH2 domains", "experiment": "SPOT peptide array probed with each of 50 GST-SH2 domains", "type": "binding", "settings": "SH2 domains with intensity >3X array mean; GST-SH2 0.25 μM, 1 mM DTT", "outline": "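Each GST-fused SH2 domain was overlaid on 192 membrane-synthesized pTyr peptides (11-mers, 4 N-terminal and 6 C-terminal flanking residues) and read with anti-GST and near-infrared secondary antibodies. Binding called relative to membrane mean intensity (>3× positive, <1× negative); GST-only probes defined nonspecific peptides.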"}, "Plcg2_C SH2 domain": {"target": "Plcg2_C SH2 domain (Homo sapiens, UniProt P16885)", "sequence (P16885 646-735 limits assumed)": "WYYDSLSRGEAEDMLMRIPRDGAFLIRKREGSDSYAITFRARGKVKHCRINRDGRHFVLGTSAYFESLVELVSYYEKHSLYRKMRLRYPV", "experiment": "Fluorescence polarization solution binding", "settings": "Rhodamine B-labeled peptide, GST-SH2, Beacon 2000, read-out: Affinity (KD)", "excerpt": "(§2) To verify the binding results obtained from addressable peptide arrays we employed an orthogonal method of determining SH2 interactions with peptide ligands. We measured the dissociation constants of 60 binary SH2-peptide pairs in solution by fluorescence polarization (Table 2, Additional file 2: Figures S3A-C).\n(§3) As noted above, this study performs well in terms of reproducing the literature reported interactions between the 50 SH2 domains tested and the 13 proteins represented on the addressable arrays (Table 1). A handful of differences with literature-reported interactions must, by necessity, be reconciled. Our assumption is that a high-throughput (HTP) study such as this one should capture upwards of 85% of known (literature reported) interactions and that results that differ from low throughput studies described in the literature should be subject to further testing to identify the nature of the discrepancy and reveal any weakness in the HTP dataset. […] For instance, FGFR1 Y-766 (SNQEpYLDLSMP) is reported to bind to PLCγ1 in a pTyr dependant manner based on mutational analysis of FGFR1 [55, 56]. […] This may imply that either this is a binding event specific to PLCγ1 (and not PLCγ2), or that the interaction reported at the level of the full-length protein may be more complex, perhaps requiring secondary contact sites that are not available within the context of the short peptide used in the current study. […] We have made an effort to limit false negatives to those of lower affinity, and we are aware of no instance in our dataset of a sub-micromolar affinity interaction being scored as array-negative.\n(§4) Peptides were synthesized using FMOC-chemistry onto pre-loaded tenta-gel resins. […] Dissociation constants were measured using the Beacon 2000 (Invitrogen) as previously described.\n(§5) Binding Affinities determined by Fluorescence Polarization. […] Fluorescence polarization measurements were read on a Beacon 2000 (Invitrogen). […]"}, "Ptpn11_N SH2 domain": {"target": "T2, Ptpn11_N SH2 domain (Homo sapiens, UniProt Q06124)", "T2 sequence (Q06124 6-102 limits assumed)": "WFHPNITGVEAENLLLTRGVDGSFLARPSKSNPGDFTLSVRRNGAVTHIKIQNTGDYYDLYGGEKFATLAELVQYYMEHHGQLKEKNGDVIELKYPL", "experiment": "Fluorescence polarization solution binding", "settings": "Rhodamine B-labeled peptide, GST-SH2, Beacon 2000, read-out: Affinity (KD)", "excerpt": "as §2\n(§6) Peptides were synthesized using FMOC-chemistry onto pre-loaded tenta-gel resins. Peptides were then labeled with Rhodamine B (Abbey Color) and then cleaved using trifluoroacetic acid. Peptides were lyophilized and then purified using a LC/MS (Agilent 2100). Dissociation constants were measured using the Beacon 2000 (Invitrogen) as previously described.\n(§7) Binding Affinities determined by Fluorescence Polarization. Rhodamine B-labeled peptides were mixed with varying concentrations of GST-tagged SH2 domains. Fluorescence polarization measurements were read on a Beacon 2000 (Invitrogen). The curves were fit to a Michaelis-Menten equation to calculate the dissociation constant, KD. […] (C) Affinity measurements that fell below the 2X mean intensity and were considered array negative on the SPOT array."}, "Crk SH2 domain [3]": {"target": "T3, Crk SH2 domain (Homo sapiens, UniProt P46108)", "T3 sequence (P46108 13-118 limits assumed)": "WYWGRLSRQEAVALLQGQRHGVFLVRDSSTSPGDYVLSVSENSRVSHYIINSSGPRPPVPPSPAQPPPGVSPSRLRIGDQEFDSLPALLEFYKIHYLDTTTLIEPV", "experiment": "Fluorescence polarization solution binding", "settings": "Rhodamine B-labeled peptide, GST-SH2, Beacon 2000, read-out: Affinity (KD)", "excerpt": "as §2, §6, §7"}, "PI3K1_N SH2 domain": {"target": "PI3K1_N SH2 domain (Homo sapiens, UniProt P27986)", "sequence (P27986 333-428 limits assumed)": "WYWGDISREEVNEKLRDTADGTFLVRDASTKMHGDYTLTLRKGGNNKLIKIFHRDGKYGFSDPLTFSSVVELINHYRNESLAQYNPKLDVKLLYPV", "experiment": "Fluorescence polarization solution binding", "settings": "Rhodamine B-labeled peptide, GST-SH2, Beacon 2000, read-out: Affinity (KD)", "excerpt": "as §2, §6, §7"}, "Crk SH2 domain [4]": {"target": "T3, Crk SH2 domain", "experiment": "SPOT peptide array", "type": "binding", "settings": "GST-SH2 0.25 μM, membrane-bound peptide, 1 mM DTT, LiCor read-out", "outline": "as §1"}, "Hck SH2 domain": {"system": "Hck SH2 domain", "experiment": "SPOT peptide array", "type": "binding", "settings": "GST-SH2 0.25 μM, membrane-bound peptide, 1 mM DTT, LiCor read-out", "outline": "as §1"}, "Rasa1_C SH2 domain [5]": {"target": "T4, Rasa1_C SH2 domain (Homo sapiens, UniProt P20936)", "T4 sequence (P20936 351-441 limits assumed)": "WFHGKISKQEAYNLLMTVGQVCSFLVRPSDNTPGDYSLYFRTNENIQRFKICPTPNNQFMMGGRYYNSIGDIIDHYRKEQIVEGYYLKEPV", "experiment": "Fluorescence polarization solution binding", "settings": "Rhodamine B-labeled peptide, GST-SH2, Beacon 2000, read-out: Affinity (KD)"}, "Plcg2_N SH2 domain": {"target": "Plcg2_N SH2 domain (Homo sapiens, UniProt P16885)", "sequence (P16885 532-635 limits assumed)": "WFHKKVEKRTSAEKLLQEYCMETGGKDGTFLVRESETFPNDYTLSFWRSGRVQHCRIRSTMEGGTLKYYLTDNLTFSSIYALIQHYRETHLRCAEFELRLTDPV", "experiment": "Fluorescence polarization solution binding", "settings": "Rhodamine B-labeled peptide, GST-SH2, Beacon 2000, read-out: Affinity (KD)", "excerpt": "as §2, §3, §4, §5"}, "PI3K1_C SH2 domain": {"target": "PI3K1_C SH2 domain (Homo sapiens, UniProt P27986)", "sequence (P27986 624-718 limits assumed)": "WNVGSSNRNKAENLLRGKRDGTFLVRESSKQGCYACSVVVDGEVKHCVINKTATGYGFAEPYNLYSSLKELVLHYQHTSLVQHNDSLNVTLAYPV", "experiment": "Fluorescence polarization solution binding", "settings": "Rhodamine B-labeled peptide, GST-SH2, Beacon 2000, read-out: Affinity (KD)", "excerpt": "as §2, §6, §7"}, "Shb SH2 domain": {"target": "Shb SH2 domain (Homo sapiens, UniProt Q15464)", "sequence (Q15464 410-504 limits assumed)": "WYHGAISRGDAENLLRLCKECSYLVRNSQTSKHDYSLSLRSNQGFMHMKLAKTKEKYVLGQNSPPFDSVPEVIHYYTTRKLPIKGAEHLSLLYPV", "experiment": "Fluorescence polarization solution binding", "settings": "Rhodamine B-labeled peptide, GST-SH2, Beacon 2000, read-out: Affinity (KD)", "excerpt": "as §2, §6, §7"}, "Rasa1_C SH2 domain [6]": {"target": "T4, Rasa1_C SH2 domain", "experiment": "SPOT peptide array", "type": "binding", "settings": "GST-SH2 0.25 μM, membrane-bound peptide, 1 mM DTT, LiCor read-out"}, "[7]": {"settings": "membrane-bound peptide, 1 mM DTT, LiCor read-out"}, "[8]": {"settings": "spot intensity as factor of array mean"}}}
{"compound": "WMEDpYDYVHLQ [11-mer phosphotyrosine peptide, p130Cas (Y664)]", "values": [{"measurement": "Array positive", "setting": "Bmx SH2 domain", "value": "Yes (Array-positive binding was ascribed to interactions with intensities greater than three times the array mean)"}, {"measurement": "Array positive", "setting": "Nck1 SH2 domain", "value": "Yes (Array-positive binding was ascribed to interactions with intensities greater than three times the array mean)"}, {"measurement": "Array positive", "setting": "Src SH2 domain [1]; [7]", "value": "No (Peptide spots with average intensity values between 1X-3X the array mean were defined as ‘indeterminate’. Those with intensities below 1X mean were defined as array negative)"}, {"measurement": "Peptide array intensity (X mean)", "setting": "Src SH2 domain [1]; [8]", "value": 2.45, "unit": "X Mean"}, {"measurement": "Kd", "setting": "Src SH2 domain [2]", "value": "25 to 46", "unit": "nM"}, {"measurement": "Array positive", "setting": "Lck SH2 domain; [7]", "value": "No (Peptide spots with average intensity values between 1X-3X the array mean were defined as ‘indeterminate’. Those with intensities below 1X mean were defined as array negative)"}, {"measurement": "Peptide array intensity (X mean)", "setting": "Lck SH2 domain; [8]", "value": 2.03, "unit": "X Mean"}, {"measurement": "Other SH2 domains bound (additional array-positive SH2 domains)", "setting": "panel of 50 SH2 domains", "value": "Bcar3, Brk, Crk, Crkl, Dapp1, Fer, Grb7, Matk, PI3K1_N, Rasa1_N, Rasa1_C, Sh3bp2 and Itk"}]}
{"compound": "CC[C@H](C)[C@H](NC(=O)[C@H](CC(N)=O)NC(=O)[C@@H](NC(=O)[C@H](Cc1ccc(OP(=O)(O)O)cc1)NC(=O)[C@H](CCC(=O)O)NC(=O)CNC(=O)[C@@H]1CCCN1C(=O)[C@@H](N)CO)C(C)C)C(=O)N[C@@H](CCC(=O)O)C(=O)N[C@@H](Cc1ccccc1)C(=O)NCC(=O)O", "note": "[SPGEpYVNIEFG]", "values": [{"measurement": "Kd", "setting": "Plcg2_C SH2 domain", "value": 2.92, "unit": "µM"}, {"measurement": "Kd", "setting": "Ptpn11_N SH2 domain", "value": 2.08, "unit": "µM"}, {"measurement": "Kd", "setting": "Crk SH2 domain [3]", "value": "> 20", "unit": "µM"}, {"measurement": "Kd", "setting": "PI3K1_N SH2 domain", "value": 2680, "unit": "nM"}]}
{"compound": "EDDGpYDVPKPP [11-mer phosphotyrosine control peptide, Cbl (Y774), reference compound]", "values": [{"measurement": "Array positive", "setting": "Crk SH2 domain [4]", "value": "Yes (Array-positive binding was ascribed to interactions with intensities greater than three times the array mean)"}, {"measurement": "Array positive", "setting": "Hck SH2 domain", "value": "Yes (Array-positive binding was ascribed to interactions with intensities greater than three times the array mean)"}, {"measurement": "Other SH2 domains bound (additional array-positive SH2 domains)", "setting": "panel of 50 SH2 domains", "value": "Crkl and Fgr, Src, Yes"}]}
{"compound": "CC(C)C[C@H](NC(=O)[C@H](CC(=O)O)NC(=O)[C@H](CC(C)C)NC(=O)[C@H](Cc1ccc(OP(=O)(O)O)cc1)NC(=O)[C@H](CCC(=O)O)NC(=O)[C@H](CC(=O)O)NC(=O)[C@@H](NC(=O)[C@@H](N)CO)[C@@H](C)O)C(=O)N[C@@H](CO)C(=O)N[C@@H](C)C(=O)N1CCC[C@H]1C(=O)O", "note": "[STDEpYLDLSAP]", "values": [{"measurement": "Kd", "setting": "Rasa1_C SH2 domain [5]", "value": "> 17", "unit": "µM"}, {"measurement": "Kd", "setting": "Plcg2_C SH2 domain", "value": 7.49, "unit": "µM"}, {"measurement": "Kd", "setting": "Plcg2_N SH2 domain", "value": "> 50", "unit": "µM"}, {"measurement": "Kd", "setting": "Ptpn11_N SH2 domain", "value": 25, "unit": "µM"}, {"measurement": "Kd", "setting": "PI3K1_C SH2 domain", "value": 2140, "unit": "nM"}, {"measurement": "Kd", "setting": "Shb SH2 domain", "value": "> 50", "unit": "µM"}]}
{"compound": "QDSLpYSDPLDS [11-mer phosphotyrosine peptide, p62DOK1 (Y315)]", "values": [{"measurement": "Other SH2 domains bound (additional array-positive SH2 domains)", "setting": "panel of 50 SH2 domains", "value": "Abl1, Blk, Crk, Lck, Lyn, Nck1, Src, Zap70_N"}, {"measurement": "Array positive", "setting": "Rasa1_C SH2 domain [6]", "value": "Yes (Array-positive binding was ascribed to interactions with intensities greater than three times the array mean)"}]}
